From patent publication US5567734A, “Phenyl-substituted alkylcarboguanidides carrying perfluoroalkyl groups, a process for their preparation, their use as a medicament or a diagnostic agent, and a medicament containing them” (priority 1994, dated 1996)
Where a name gives a salt, the structure may show the parent alone.

Columns and labels:
[1] = target: T1, Na^+ /H^+ exchanger of rabbit erythrocytes (Oryctolagus cuniculus, UniProt P23791); experiment: Inhibition of the Na^+ /H^+ exchanger of rabbit erythrocytes (Na^+ influx by flame photometry); type: cell-based, rabbit (New Zealand White); conditions: pH 7.4, 37° C., hyperosmolar salt/sucrose medium, cholesterol-fed rabbits, read-out: IC 50, Na^+ /H^+ -exchanger inhibition
T1 construct: endogenous in cells; host or cells: erythrocytes in heparinised blood of cholesterol-fed New Zealand White rabbits (Ivanovas)
T1 sequence (P23791 whole entry): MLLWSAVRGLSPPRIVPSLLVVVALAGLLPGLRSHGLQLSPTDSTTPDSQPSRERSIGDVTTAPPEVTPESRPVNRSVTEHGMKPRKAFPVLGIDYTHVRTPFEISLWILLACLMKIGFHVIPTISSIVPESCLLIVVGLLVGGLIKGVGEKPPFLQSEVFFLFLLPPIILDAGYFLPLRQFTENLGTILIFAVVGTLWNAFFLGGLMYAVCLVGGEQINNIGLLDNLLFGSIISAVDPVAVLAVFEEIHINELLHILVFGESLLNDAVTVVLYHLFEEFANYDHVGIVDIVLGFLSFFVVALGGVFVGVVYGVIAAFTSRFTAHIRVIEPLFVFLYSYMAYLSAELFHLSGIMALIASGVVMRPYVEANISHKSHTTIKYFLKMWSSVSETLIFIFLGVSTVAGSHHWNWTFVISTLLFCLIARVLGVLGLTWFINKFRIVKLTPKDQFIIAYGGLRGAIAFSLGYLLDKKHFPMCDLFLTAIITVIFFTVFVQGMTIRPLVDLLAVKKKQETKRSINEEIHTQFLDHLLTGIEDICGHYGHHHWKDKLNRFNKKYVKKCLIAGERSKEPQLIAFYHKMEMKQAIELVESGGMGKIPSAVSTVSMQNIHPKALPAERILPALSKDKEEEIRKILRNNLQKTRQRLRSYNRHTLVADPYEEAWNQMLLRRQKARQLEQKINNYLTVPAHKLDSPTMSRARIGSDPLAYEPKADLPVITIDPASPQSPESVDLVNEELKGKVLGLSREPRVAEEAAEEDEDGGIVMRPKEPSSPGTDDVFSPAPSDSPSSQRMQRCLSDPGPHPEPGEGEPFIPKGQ
Excerpt: Inhibition of the Na^+ /H^+ exchanger of rabbit erythrocytes:
New Zealand White rabbits (Ivanovas) were given a standard diet containing 2% cholesterol for 6 weeks in order to activate Na^+ /H^+ exchange and thus render it possible to determine the Na^+ influx into the erythrocytes via Na^+ /H^+ exchange by flame photometry. The blood was removed from the aural arteries and rendered incoagulable using 25 IU/ml potassium heparin. A portion of each sample was used for determining, in duplicate, the hematocrit by centrifugation. Aliquots of in each case 100 μl were used for measuring the initial content of Na^+ in the erythrocytes.
In order to determine the amiloride-sensitive sodium influx, 100 μl of each blood sample were incubated, at pH 7.4 and 37° C., in in each case 5 ml of a hyperosmolar salt/sucrose medium (mmol/l:140 NaCl, 3 KCl, 150 sucrose, 0.1 ouabain, 20 tris(hydroxymethyl)aminomethane). After that, the erythrocytes were washed three times with ice-cold MgCl2 /ouabain solution (mmol/l: 112 MgCl2, 0.1 ouabain), and haemolyzed in 2.0 ml of distilled water. The intracellular content of sodium was determined by flame photometry.
The net influx of Na^+ was calculated from the difference between the initial sodium values and the sodium content of the erythrocytes after incubation. The amiloride-inhibitable sodium influx was given by the difference in the sodium content of the erythrocytes after incubation with and without 3×10^-4 mol/l amiloride. The same procedure was employed for the compounds according to the invention.

rat hearts = conditions: isolated rat hearts; cited from earlier work
[2] = test system: disturbances of cardiac rhythm; conditions: literature; cited from earlier work

| Structure (SMILES) | IC50 [1] [nM] | other results |
| --- | --- | --- |
| CC(Cc1cccc(C(F)(F)F)c1)C(=O)N=C(N)N (racemic) [Example 5, 2-Methyl-3-(3-trifluoromethylphenyl)propionoguanidide hydrochloride] | 50 | – |
| NC(N)=NC(=O)CCc1cccc(C(F)(F)F)c1 [Example 1, 3-(3-Trifluoromethylphenyl)propionoguanidide] | 600 | – |
| NC(N)=NC(=O)CCc1ccccc1C(F)(F)F [Example 2, 3-(2-Trifluoromethylphenyl)propionoguanidide] | 500 | – |
| NC(N)=NC(=O)CCc1cccc(OC(F)(F)F)c1 [Example 3, 3-(3-Trifluoromethoxyphenyl)propionoguanidide hydrochloride] | 700 | – |
| N=C(N)NC(=O)c1nc(Cl)c(N)nc1N [amiloride] | – | suppression of artificially induced ventricular fibrillation (rat hearts): completely suppress; antiarrhythmic effect [2]: only weakly expressed; side effects when treating disturbances of cardiac rhythm [2]: hypotensive and saluretic effects |
| CCN(c1nc(N)c(C(=O)NC(=N)N)nc1Cl)C(C)C [ethylisopropyl amiloride, Ethylisopropyl amiloride] | – | potency relative to amiloride, ventricular fibrillation (rat hearts): even more potent than amiloride |
